Measured values from patent US20200170968A1 (priority 2014, published 2020).

Tests used:
[1] = tested on: Chronically HIV-infected U1 cells (monocytes); assay: Reverse transcriptase (RT) activity as readout of virion production in chronically HIV-infected U1 cells; assay type: cell-based
[2] = tested on: U1 cells; assay: U1 cell viability and proliferation ([3H]-thymidine incorporation); assay type: cell-based; settings: HIV-infected U1 cells
Procedure: Chronically HIV-infected U1 cells (monocytes) were stimulated for 6 hours in the presence of NACA. Cytokines (IL-6, […]) or PMA were added and maintained in the cell cultures for 6 days, collecting supernatants daily. Cell viability and proliferation were checked by optical microscopy, and [3H]-thymidine incorporation, and calcein AM assay. Reverse transcriptase-polymerase chain reaction (RT-PCR) and reverse transcriptase (RT) activity assay as readout of virion production.

[3] = tested on: HIV infected PBMCs; assay: Cell viability of HIV infected PBMCs; assay type: cell-based; settings: varying concentrations of NACA
Procedure: (§1) Peripheral blood mononuclear cells (PBMC) were acutely infected with HIV-1 and stimulated with NACA. Cell viability was measured in HIV infected PBMCs with varying concentrations of NACA.

[4] = tested on: HIV-1; assay: HIV replication in acutely infected PBMC / lymphocytes; assay type: cell-based
Procedure: In some embodiments, the present invention relates to a method for inhibiting HIV replication. Data is attached reporting the results of an HIV study in lymphocytes with 100% block of replication at 20 mM concentration.
as §1

[5] = tested on: HIV-1 (IIIB); assay: Inhibition of HIV-1 replication in CEM cells (giant cell / syncytia formation); assay type: cell-based; settings: for EC50: concentration required to protect CEM cells against the cytopathogenicity of HIV by 50%, HIV-1 (IIIB)
Procedure: (§2) CEM cells were suspended in fresh culture medium and infected with HIV-1 (IIIB) or HIV-2 (ROD) at 100 CCID50 per ml of cell suspension. 100 μl of the infected cell suspension were transferred to microplate wells, mixed with 100 μl of the appropriate dilutions of compounds, and further incubated at 37° C. After 4 days, giant cell formation was recorded microscopically and the number of giant cells was estimated as percentage of the number of giant cells present in the non-treated virus-infected cell cultures.

[6] = tested on: HIV-2 (ROD); assay: Inhibition of HIV-2 replication in CEM cells (giant cell / syncytia formation); assay type: cell-based; settings: for EC50: concentration required to protect CEM cells against the cytopathogenicity of HIV by 50%, HIV-2 (ROD)
Procedure: as §2

[7] = tested on: CEM cells; assay: Cytostatic activity assay (cell proliferation, Coulter counter); assay type: cell-based; settings: Homo sapiens, CCRF-CEM, 72 h, 50% inhibitory concentration of cell proliferation
Procedure: The cytostatic activity assay was performed in 96-well microliter plates. 5-7.5×10^4 cells and a given amount of the test compound were added to each well. The cells were allowed to proliferate for 72 h at 37° C. is a humidified CO2-controlled atmosphere. At the end of the incubation period, the cells were counted in a Coulter counter. The IC50 (half maximal inhibitory concentration) was defined as the concentration of the compound that inhibited cell proliferation by 50%.

[8] = tested on: CEM cells; assay: Viability test (trypan blue); assay type: cell-based, Human; settings: concentrations up to 10 mM
Procedure: CEM cells (3×10^5 cells/ml) were seeded and grown in the presence or absence of indicated concentrations of NACA. The medium was replaced and added new NACA after two days. After 48 and 96 hours, respectively, aliquots of the cells were harvested and combined with trypan blue dye before analyzed microscopically on a hemocytometer counting chamber. Blue cells were counted as nonviable and to estimate the amount of viable cells the amount of live cells was compared to the total amount of cells.

[9] = biological target: T1, viral RT (Human immunodeficiency virus type 1 group M subtype B, UniProt P04585); assay: Reverse transcriptase (RT) inhibition, Lenti RT Activity kit; assay type: biochemical, HIV; settings: 25 μM
T1 construct: endogenous in cells; host or cells: viral sample (virus-containing supernatant; probably from PMA-induced ACH-2 cells, inferred)
Procedure: The ability of the compounds to inhibit the activity of viral RT was determined by a Lenti RT Activity kit (Cavidi, Uppsala, Sweden) according to the manufacturer's instructions (protocol A): A poly-A plate was incubated with the reaction buffer for up to 1 h at 33° C. Afterwards, the viral sample together with NACA, an inhibition control (nevirapin) or a vehicle control (DMSO) were added and incubated overnight at 33° C. The plate was washed, exposed to the tracer for 90 min at 33° C. and washed again, before the substrate was added. The plate was incubated in the dark and subsequently read at 405 nm in a Multiskan RC (Labsystem).
For the data shown in FIG. 13A, a poly-A plate was incubated with the reaction buffer and subsequently, the viral sample (1:500 dilution) together with the NACA, nevirapin (inhibition control) or DMSO (vehicle control) was added and incubated overnight. The plate was exposed to the tracer and the substrate was added. The plate was incubated in the dark and read at 405 nm. The value for the vector control (DMSO) was set to 100% in each individual repeat and all other values were normalized to this reference value. The data shown in FIG. 13A are means of three independent experiments; the error bars represent the SEM. P-values are indicated if significant (*: p<0.05; **: p<0.01; ***: p<0.001).

[10] = biological target: T2, recombinant HIV-1 protease (Human immunodeficiency virus type 1 group M subtype B, UniProt P04585); assay: Protease inhibition, SensoLyte HIV-1 protease assay kit; assay type: biochemical
T2 construct: Recombinant HIV-1 protease was purchased from AnaSpec Inc; purchased AnaSpec Inc
Procedure: The ability of NACA to inhibit the activity of recombinant HIV-1 protease was determined by a SensoLyte […] HIV-1 protease assay kit (AnaSpec Inc.) according to manufacturer's instructions: The compounds and the HIV-1 protease were added to a dark-bottom 96 well plate and the following controls were included: positive control (without NACA), inhibition control (pepstatin A), vehicle control (DMSO), NACA controls (to test for autofluorescence) and substrate control (assay buffer only). The plate as well as the HIV-1 protease substrate solution were incubated 15 minutes at 37° C. and 50 μl protease substrate was added to all wells. The fluorescence was measured at Ex/Em=490 nm/520 nm with a Varioskan Flash (Thermo Electron Corporation).
For the data shown in FIG. 13B, the HIV-1 protease together with NACA, a positive control (pepstatin A) or DMSO (vehicle control) were added to a dark-bottom 96 well plate. The plate as was incubated and protease substrate was added to all wells. The fluorescence was measured at Ex/Em=490 nm/520 nm. The value for the vector control (DMSO) was set to 100% in each individual repeat and all other values were normalized to this reference value. The data are means of three independent experiments; the error bars represent the SEM. P-values are indicated if significant (*: p<0.05; **: p<0.01; ***: p<0.001).

[11] = tested on: viral integration in TZM-b1 cells; assay: Infectivity assay in TZM-b1 cells (luciferase; viral integration); assay type: cell-based, HIV-1; settings: 10 mM; 40 h
Procedure: 1×10^5 TZM-b1 cells were infected with diluted virus suspension (see 2.3 Virus expression) in a total of 0.2 ml DMEM medium in the presence of NACA, an inhibition control (nevirapin) or a vehicle control (DMSO). After 40 h at 37° C., the cells were assayed in a Luminoskan Ascent (Thermo Labsystems) for luciferase activity using the OneGlo luciferase assay system (Promega).
To determine additional targets of NACA inhibition within early stage processes of viral integration (viral entry to integration into the host genome), an infectivity assay was performed. TZM-b1 cells contain a luciferase gene that is under control of the HIV-1 promoter. Upon viral entry, transcription and integration into the host genome, luciferase is expressed and can convert the added substrate to the fluorescent product. The amount of measured product is quantitatively correlated to the amount of integrated virus in the test culture.
For the data in FIG. 14, TZM-b1 cells were infected with a diluted virus suspension in a total of 0.2 ml DMEM medium in the presence of the 25 μM or 10 mM NACA, an inhibition control (nevirapin) or a vehicle control (DMSO). Additionally, one well was treated with medium only instead of the virus dilution (no virus, negative control). After 40 h, the cells were assayed for luciferase activity. […] P-values were calculated between the vehicle control and the individual treatments. […]

[12] = tested on: p24 in ACH-2 cells; assay: Production of viral particles (p24) in PMA-stimulated ACH-2 cells; assay type: cell-based, HIV; settings: ACH-2 cells with PMA, 3 days, indicated amounts of NACA
Procedure: ACH-2 cells (1×10^6 cells/ml) were cultured with 100 nM PMA. After three days the cell culture supernatant was collected, cleared by centrifugation at 300×g for 10 min and passed through a 0.45 μm filter. p24 content was measured in an Architect i2000SR (Abbott Laboratories, Ill., USA) as a measurement for virus content and supernatant was either used directly or frozen at −80° C. for later usage.
(§3) To measure the infectivity of particles produced in the presence of the compounds, ACH-2 cells (1×10^6 cells/ml) were cultured with 100 nM PMA in the presence of the indicated amount of NACA or DMSO (negative control). After 3 days, the p24 content of the clarified supernatant (see 2.3 Virus expression) was measured. The supernatant was used for an infectivity test (see 2.4 Infectivity test) without the addition of any compound to the wells. The final dilution of the viral supernatant in the infectivity test was 1:100. A control experiment was performed, in which virus particles produced without the addition of NACA, were used for the infectivity test.
For the data in FIG. 15A, ACH-2 cells were cultured with […] in the presence of the indicated amount of NACA, DMSO (vector control=0 mM NACA) or no additive (control). After 3 days, the supernatant was clarified and the amount of p24 was measured by ELISA. […] P-values were calculated between the vehicle control and the individual treatments. […]

[13] = tested on: HIV particles; assay: Infectivity of viral particles produced in the presence of NACA (TZM-b1 luciferase); assay type: cell-based
Procedure: as §3
For the data in FIG. 15B, the clarified supernatant was further used for an infectivity test without the addition of any compound to the wells. The NACA amount stated in the graph refers to the amount in which the HIV producing cells were grown. TZM-b1 cells were infected with the diluted virus suspensions in a total of 0.2 ml DMEM (total dilution of virus supernatant: 1:100). After 40 h, the cells were assayed for luciferase activity. Additionally, a control experiment was performed, in which virus particles produced in the control set up, were used for the infectivity test. The same amount of NACA that could have been carried over with the virus containing supernatant in the original experiment was added to the infectivity test (final concentration: 1/100 of the indicated amount in the viral growth culture). The value for the control was set to 100% in each individual repeat and all other values were normalised these reference values. The data are means of three independent experiments; the error bars represent the SEM. P-values were calculated between the vehicle control and the individual treatments. P-values are indicated if significant (*: p<0.05; **: p<0.01; ***:p<0.001).

Question: Which results are given for CC(=O)N[C@@H](CS)C(N)=O?
Answer: reverse transcriptase activity ([1]; U1 cells activated with 1 ng/mL TNF-α or 10 ng/mL IL-6): significant reduction; concentration effective in reducing HIV replication in activated U1 cells (RT activity) ([1]; U1 cells activated with 1 ng/mL TNT-α, 10 ng/mL IL-6 or 10 nM PMA): 1 to 10 µM; relative amounts of reverse transcriptase activity ([1]; U1 cells, between days 3 and 5): did not alter; concentration effective in reducing HIV replication in activated U1 cells ([1]; activated U1 cells): 10 to 333 µM; U1 cell viability or proliferation as measured by [3H]-thymidine incorporation [2]: did not have a large effect; cell viability [3]: did not affect cell viability; effect on HIV replication ([4]; HIV infected PBMCs): inhibitor effect; HIV replication inhibited ([4]; HIV infected PBMCs, concentrations of 10 mM and above): ~100%; block of replication ([4]; lymphocytes, 20 mM concentration): 100%; Ratio IC50/EC50 (CEM) HIV-1 ([5]; CEM cells): 3; EC50 ([5]; Human immunodeficiency virus 1, IIIB, CCRF-CEM): ~230 µM; EC50 [5]: 224 ± 86 µM; Ratio IC50/EC50 (CEM) HIV-2 ([6]; CEM cells): 2; EC50 ([6]; Human immunodeficiency virus 2, CCRF-CEM): ~230 µM; EC50 [6]: 234 µM; IC50 [7]: ~564 µM; CEM cells alive [8]: more than 99%; effect on viral RT activity [9]: no effect; effect on viral protease activity ([10]; 25 μM): no effect; effect on protease activity ([10]; 10 mM): significant effect; effect on viral integration [11]: more predominant effect; amount of p24 [12]: not affected; effect on infectivity when NACA was added after the production of the viral particles (NACA added) ([13]; final concentration 1/100 of the indicated amount): not visible; infectivity of the particles produced in the presence of NACA (NACA grown) ([13]; higher concentrations (5 mM to 10 mM)): decreased significantly; infectivity of the particles produced in the presence of NACA (NACA grown) ([13]; low concentrations (0 mM to 1 mM)): auxiliary effect
